Experimental data: ChEMBL document CHEMBL5212743, “Selectivity Literature for EUbOPEN Chemogenomics Library wave 3” (2023)

Key:
[1] = biological target: T1, Serine/threonine-protein kinase 16 (Homo sapiens, UniProt O75716); assay: Selectivity interaction (KinomeScan (DiscoverX)) EUB0000724a STK16; details: at 1 µM
[2] = biological target: T2, Phosphatidylinositol 5-phosphate 4-kinase type-2 beta (Homo sapiens) (UniProt P78356); assay: Selectivity interaction (KinomeScan (DiscoverX)) EUB0000724a PIP4K2B; details: at 1 µM
T2 sequence (whole entry): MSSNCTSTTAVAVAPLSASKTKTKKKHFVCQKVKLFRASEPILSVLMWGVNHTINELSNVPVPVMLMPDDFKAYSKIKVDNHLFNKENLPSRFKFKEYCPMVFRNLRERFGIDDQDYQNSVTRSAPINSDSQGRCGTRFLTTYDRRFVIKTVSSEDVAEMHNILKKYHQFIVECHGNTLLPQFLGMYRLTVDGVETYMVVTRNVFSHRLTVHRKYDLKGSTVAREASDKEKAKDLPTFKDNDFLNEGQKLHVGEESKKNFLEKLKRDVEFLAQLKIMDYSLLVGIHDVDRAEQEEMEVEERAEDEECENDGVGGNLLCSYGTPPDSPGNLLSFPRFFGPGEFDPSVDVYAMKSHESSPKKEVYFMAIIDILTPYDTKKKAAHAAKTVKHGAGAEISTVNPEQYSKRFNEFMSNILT

[3] = biological target: T3, Homeodomain-interacting protein kinase 2 (Homo sapiens, UniProt Q9H2X6); assay: Selectivity interaction (KinomeScan (DiscoverX)) EUB0000724a HIPK2; details: at 1 µM
[4] = biological target: T4, Homeodomain-interacting protein kinase 1 (Homo sapiens, UniProt Q86Z02); assay: Selectivity interaction (KinomeScan (DiscoverX)) EUB0000724a HIPK1; details: at 1 µM
Target sequence in this assay (Q86Z02 whole entry, looked up): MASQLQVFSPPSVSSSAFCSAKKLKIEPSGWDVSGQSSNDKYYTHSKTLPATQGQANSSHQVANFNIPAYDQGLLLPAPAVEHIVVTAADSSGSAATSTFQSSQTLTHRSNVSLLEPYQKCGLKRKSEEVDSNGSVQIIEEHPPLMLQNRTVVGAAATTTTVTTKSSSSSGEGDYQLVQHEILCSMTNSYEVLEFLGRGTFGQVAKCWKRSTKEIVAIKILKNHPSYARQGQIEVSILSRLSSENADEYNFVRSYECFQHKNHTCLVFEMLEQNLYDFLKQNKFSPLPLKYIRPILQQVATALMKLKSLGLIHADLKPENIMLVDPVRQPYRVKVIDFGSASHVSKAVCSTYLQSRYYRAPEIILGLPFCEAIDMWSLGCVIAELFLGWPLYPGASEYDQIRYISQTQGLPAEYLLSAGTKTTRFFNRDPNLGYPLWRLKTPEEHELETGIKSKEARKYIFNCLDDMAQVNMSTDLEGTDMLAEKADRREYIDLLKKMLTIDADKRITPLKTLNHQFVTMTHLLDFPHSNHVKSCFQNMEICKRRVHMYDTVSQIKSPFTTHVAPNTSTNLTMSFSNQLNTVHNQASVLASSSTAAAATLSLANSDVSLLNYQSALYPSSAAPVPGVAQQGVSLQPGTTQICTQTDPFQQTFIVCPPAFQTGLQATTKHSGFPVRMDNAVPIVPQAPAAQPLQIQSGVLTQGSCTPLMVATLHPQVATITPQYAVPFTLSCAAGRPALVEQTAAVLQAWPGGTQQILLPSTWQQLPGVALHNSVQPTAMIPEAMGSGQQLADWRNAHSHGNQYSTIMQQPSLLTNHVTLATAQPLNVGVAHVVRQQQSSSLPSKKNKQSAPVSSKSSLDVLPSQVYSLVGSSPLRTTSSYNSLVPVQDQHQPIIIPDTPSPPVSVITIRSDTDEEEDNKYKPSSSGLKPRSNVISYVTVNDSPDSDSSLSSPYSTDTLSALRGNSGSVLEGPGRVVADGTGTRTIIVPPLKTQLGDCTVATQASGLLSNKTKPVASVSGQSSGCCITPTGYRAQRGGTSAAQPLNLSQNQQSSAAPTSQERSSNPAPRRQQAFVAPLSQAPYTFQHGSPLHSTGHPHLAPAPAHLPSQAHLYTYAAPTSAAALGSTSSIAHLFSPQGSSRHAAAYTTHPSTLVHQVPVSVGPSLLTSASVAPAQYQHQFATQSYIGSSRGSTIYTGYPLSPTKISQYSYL

[5] = biological target: T3, Homeodomain-interacting protein kinase 2; assay: Selectivity interaction (NanoBRET assay (HEK293T cells)) EUB0000724a HIPK2
[6] = biological target: Serine/threonine-protein kinase Nek7 (Homo sapiens, UniProt Q8TDX7); assay: Selectivity interaction (KinomeScan (DiscoverX)) EUB0000724a NEK7; details: at 1 µM
[7] = biological target: T1, Serine/threonine-protein kinase 16; assay: Selectivity interaction (NanoBRET assay (HEK293T cells)) EUB0000724a STK16
[8] = biological target: T5, Mitogen-activated protein kinase 15 (Homo sapiens) (UniProt Q8TD08); assay: Selectivity interaction (KinomeScan (DiscoverX)) EUB0000724a MAPK15; details: at 1 µM
T5 sequence (whole entry): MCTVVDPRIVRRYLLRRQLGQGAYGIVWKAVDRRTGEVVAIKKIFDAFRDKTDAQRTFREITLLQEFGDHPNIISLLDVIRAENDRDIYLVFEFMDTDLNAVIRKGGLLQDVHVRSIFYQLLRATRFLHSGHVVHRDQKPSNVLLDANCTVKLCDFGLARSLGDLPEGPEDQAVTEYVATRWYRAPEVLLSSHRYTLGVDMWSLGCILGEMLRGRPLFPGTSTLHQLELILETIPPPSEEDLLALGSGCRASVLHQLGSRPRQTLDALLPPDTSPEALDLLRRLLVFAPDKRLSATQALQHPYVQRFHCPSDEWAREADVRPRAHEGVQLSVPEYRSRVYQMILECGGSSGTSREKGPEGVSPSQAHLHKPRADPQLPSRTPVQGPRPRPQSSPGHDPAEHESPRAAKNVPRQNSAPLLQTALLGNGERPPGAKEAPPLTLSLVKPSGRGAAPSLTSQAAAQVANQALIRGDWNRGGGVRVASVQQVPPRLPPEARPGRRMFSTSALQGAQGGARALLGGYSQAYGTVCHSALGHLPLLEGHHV

[9] = biological target: T4, Homeodomain-interacting protein kinase 1; assay: Selectivity interaction (NanoBRET assay (HEK293T cells)) EUB0000724a HIPK1
Target sequence in this assay (Q86Z02 whole entry): as the sequence (Q86Z02 whole entry, looked up) above

[10] = biological target: Phosphatidylinositol 4,5-bisphosphate 3-kinase catalytic subunit alpha isoform (Homo sapiens, UniProt P42336); assay: Selectivity interaction (KinomeScan (DiscoverX)) EUB0000712a PIK3CA; details: at 1 µM
[11] = biological target: T6, Serine/threonine-protein kinase Chk2 (Homo sapiens, UniProt O96017); assay: Selectivity interaction (KinomeScan (DiscoverX)) EUB0000712a CHEK2; details: at 1 µM
[12] = biological target: T7, Serine/threonine-protein kinase 38-like (Homo sapiens, UniProt Q9Y2H1); assay: Selectivity interaction (NanoBRET assay (HEK293T cells)) EUB0000712a STK38L
Target sequence in this assay (Q9Y2H1 whole entry): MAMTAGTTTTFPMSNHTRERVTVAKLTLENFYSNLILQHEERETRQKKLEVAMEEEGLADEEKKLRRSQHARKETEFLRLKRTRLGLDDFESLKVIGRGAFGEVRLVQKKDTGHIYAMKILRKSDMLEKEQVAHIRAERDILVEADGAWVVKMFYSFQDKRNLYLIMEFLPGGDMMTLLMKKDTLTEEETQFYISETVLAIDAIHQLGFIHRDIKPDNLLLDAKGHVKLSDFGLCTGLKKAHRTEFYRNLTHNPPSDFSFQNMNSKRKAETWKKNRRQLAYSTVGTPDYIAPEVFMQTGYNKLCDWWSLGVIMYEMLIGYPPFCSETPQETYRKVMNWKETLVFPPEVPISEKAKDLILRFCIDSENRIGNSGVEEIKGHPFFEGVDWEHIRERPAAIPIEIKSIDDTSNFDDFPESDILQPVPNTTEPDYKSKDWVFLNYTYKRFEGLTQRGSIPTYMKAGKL

[13] = biological target: T6, Serine/threonine-protein kinase Chk2; assay: Selectivity interaction (NanoBRET assay (HEK293T cells)) EUB0000712a CHEK2
Mu-type opioid receptor = Mu-type opioid receptor (Homo sapiens, UniProt P35372); assay: Selectivity interaction (GPCR panel (PDSP screen)) EUB0000712a OPRM1; details: at 10 µM
[14] = biological target: Serine/threonine-protein kinase B-raf (Homo sapiens, UniProt P15056); assay: Selectivity interaction (NanoBRET assay (HEK293T cells)) EUB0000712a BRAF
[15] = biological target: T7, Serine/threonine-protein kinase 38-like; assay: Selectivity interaction (KinomeScan (DiscoverX)) EUB0000712a STK38L; details: at 1 µM
Target sequence in this assay (Q9Y2H1 2-464 limits assumed): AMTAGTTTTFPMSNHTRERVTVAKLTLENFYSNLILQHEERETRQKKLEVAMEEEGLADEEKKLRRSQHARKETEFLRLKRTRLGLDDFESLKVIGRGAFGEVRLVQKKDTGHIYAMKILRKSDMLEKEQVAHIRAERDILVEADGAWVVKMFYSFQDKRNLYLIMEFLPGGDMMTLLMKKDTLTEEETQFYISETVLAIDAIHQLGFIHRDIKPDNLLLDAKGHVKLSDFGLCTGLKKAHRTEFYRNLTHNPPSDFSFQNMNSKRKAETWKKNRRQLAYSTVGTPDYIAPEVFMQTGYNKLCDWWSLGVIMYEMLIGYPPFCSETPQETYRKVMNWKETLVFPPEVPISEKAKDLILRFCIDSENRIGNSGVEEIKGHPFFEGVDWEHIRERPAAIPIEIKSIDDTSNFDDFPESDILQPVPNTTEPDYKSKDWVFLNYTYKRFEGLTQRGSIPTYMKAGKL

[16] = biological target: Receptor-interacting serine/threonine-protein kinase 2 (Homo sapiens) (UniProt O43353); assay: Selectivity interaction (KinomeScan (DiscoverX)) EUB0000712a RIPK2; details: at 1 µM
Receptor-interacting serine/threonine-protein kinase 2 (Homo sapiens), sequence (O43353 whole entry): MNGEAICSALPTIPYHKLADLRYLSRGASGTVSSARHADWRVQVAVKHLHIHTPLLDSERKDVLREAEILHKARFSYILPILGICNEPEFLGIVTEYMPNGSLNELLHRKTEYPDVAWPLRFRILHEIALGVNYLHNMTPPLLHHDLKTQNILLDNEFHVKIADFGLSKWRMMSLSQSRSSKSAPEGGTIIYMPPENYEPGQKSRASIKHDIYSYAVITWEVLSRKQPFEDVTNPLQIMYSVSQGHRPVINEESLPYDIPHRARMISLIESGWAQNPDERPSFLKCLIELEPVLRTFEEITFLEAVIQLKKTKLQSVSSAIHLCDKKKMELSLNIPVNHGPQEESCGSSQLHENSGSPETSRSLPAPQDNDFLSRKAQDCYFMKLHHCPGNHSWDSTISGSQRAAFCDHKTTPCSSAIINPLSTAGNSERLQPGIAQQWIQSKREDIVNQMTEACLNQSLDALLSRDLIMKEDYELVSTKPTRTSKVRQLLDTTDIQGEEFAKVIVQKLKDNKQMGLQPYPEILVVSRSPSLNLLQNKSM

T6 sequence (O96017 whole entry): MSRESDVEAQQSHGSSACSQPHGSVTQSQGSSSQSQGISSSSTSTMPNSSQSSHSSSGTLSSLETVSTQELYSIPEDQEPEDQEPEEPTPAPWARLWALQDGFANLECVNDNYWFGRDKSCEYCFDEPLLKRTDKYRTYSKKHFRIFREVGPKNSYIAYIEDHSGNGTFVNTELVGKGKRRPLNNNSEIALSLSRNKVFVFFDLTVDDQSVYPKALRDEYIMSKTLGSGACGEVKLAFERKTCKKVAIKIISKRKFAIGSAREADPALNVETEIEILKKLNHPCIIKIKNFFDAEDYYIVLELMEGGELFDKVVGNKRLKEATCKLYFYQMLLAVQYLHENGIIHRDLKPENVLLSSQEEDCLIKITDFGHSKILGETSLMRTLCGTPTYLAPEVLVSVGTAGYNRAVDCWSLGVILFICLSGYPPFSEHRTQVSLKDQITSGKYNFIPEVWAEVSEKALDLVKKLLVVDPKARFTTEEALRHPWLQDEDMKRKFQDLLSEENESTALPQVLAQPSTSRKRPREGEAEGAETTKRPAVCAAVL
T1 sequence (O75716 whole entry): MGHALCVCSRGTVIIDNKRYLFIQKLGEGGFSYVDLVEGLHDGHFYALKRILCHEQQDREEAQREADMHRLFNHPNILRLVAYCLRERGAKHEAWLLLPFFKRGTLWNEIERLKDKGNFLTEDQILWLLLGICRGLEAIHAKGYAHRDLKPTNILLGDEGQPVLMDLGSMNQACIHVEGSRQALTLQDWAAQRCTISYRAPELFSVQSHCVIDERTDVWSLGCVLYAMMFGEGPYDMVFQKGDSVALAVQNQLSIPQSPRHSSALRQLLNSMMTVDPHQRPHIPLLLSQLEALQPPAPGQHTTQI
Phosphatidylinositol 4,5-bisphosphate 3-kinase catalytic subunit alpha isoform, sequence (P42336 whole entry, canonical isoform): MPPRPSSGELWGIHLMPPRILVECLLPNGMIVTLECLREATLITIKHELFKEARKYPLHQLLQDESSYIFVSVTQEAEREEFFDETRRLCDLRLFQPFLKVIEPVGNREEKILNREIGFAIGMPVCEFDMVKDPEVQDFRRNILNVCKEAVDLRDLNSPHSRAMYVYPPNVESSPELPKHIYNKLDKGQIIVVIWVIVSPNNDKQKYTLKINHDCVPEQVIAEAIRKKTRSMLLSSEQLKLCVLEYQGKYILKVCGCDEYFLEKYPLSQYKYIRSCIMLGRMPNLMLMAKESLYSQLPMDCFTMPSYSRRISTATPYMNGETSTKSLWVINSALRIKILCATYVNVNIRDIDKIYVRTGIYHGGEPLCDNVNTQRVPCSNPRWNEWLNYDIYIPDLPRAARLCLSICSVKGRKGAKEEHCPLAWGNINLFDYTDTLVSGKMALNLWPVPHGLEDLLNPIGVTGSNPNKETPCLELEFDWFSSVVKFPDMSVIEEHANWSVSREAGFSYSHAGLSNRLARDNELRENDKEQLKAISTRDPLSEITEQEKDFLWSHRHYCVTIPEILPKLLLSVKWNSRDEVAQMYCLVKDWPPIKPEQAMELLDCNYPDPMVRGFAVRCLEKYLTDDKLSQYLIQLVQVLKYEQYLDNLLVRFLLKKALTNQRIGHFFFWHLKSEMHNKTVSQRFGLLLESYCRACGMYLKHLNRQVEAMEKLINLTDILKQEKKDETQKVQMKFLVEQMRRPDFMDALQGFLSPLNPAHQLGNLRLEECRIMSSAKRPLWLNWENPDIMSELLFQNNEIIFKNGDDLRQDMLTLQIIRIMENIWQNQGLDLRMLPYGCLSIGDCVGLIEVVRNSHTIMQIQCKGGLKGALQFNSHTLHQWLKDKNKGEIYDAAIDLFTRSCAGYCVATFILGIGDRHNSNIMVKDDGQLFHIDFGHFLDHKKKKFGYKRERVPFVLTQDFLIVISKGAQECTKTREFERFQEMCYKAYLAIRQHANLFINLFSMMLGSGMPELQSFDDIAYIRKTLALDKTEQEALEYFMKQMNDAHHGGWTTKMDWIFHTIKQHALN
Serine/threonine-protein kinase Nek7, sequence (Q8TDX7 whole entry, looked up): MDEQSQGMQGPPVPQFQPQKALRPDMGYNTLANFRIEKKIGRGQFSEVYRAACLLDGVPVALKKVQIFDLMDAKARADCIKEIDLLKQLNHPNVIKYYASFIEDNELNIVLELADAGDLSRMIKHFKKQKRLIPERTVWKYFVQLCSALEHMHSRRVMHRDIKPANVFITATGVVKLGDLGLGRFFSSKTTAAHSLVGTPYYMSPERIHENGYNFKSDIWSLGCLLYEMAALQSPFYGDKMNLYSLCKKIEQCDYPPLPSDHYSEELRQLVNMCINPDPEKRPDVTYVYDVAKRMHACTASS

| Structure (SMILES) | % of control [1] [%] | % of control [2] [%] | % of control [3] [%] | % of control [4] [%] | IC50 [5] [µM] | % of control [6] [%] | IC50 [7] [µM] | % of control [8] [%] | IC50 [9] [µM] | % of control [10] [%] | % of control [11] [%] | IC50 [12] [µM] | IC50 [13] [µM] | % of inhibition (Mu-type opioid receptor) [%] | IC50 [14] [µM] | % of control [15] [%] | % of control [16] [%] |
| --- | --- | --- | --- | --- | --- | --- | --- | --- | --- | --- | --- | --- | --- | --- | --- | --- | --- |
| COc1cc(Nc2nccc(-c3cnn4nc(OC)ccc34)n2)cc(C(F)(F)F)c1 | 53 | 50 | 34 | 31 | > 10 | 40 | 0.167 | 21 | > 10 | – | – | – | – | – | – | – | – |
| CS(=O)(=O)N1CCCC(NC(=O)[C@H](CCC2CCCCC2)NC(=O)c2ccc(CNC(=O)c3cnc4ccccn34)cc2)C1 (some centres not stated) [SR-302] | – | – | – | – | – | – | – | – | – | 37 | 37 | > 25 | > 25 | 45.3 | > 25 | 40 | 30 |
